# pIC50: −log10 of the molar value.
# Tests used:
# [1] = biological target: T1, human SGLT1 (Homo sapiens, UniProt P13866); assay: SGLT1 assay: Na-dependent 14C-AMG uptake in CHO-K1 cells stably expressing human SGLT1; type: cell-based; conditions: for pIC50: 500 μM AMG, 2 hours at 37° C.
# T1 construct: expressed in transfected cells; host or cells: CHO-K1
# T1 sequence (P13866 1-664): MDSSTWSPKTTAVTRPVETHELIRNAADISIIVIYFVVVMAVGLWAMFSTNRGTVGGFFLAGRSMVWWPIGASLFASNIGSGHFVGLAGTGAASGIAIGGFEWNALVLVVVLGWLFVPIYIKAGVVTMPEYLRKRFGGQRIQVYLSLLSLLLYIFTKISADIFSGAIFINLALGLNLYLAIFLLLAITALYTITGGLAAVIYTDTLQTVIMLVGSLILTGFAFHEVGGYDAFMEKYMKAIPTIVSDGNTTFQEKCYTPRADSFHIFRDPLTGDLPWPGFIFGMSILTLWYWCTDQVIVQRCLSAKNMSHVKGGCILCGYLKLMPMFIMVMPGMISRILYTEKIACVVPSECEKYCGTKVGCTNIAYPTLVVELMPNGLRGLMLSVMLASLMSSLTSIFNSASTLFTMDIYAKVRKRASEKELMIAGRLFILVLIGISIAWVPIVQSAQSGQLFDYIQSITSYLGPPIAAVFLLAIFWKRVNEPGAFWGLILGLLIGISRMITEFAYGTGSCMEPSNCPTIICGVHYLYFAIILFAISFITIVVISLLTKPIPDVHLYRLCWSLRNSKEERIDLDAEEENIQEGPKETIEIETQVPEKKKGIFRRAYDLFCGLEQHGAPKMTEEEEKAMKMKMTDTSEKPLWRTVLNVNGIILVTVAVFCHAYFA
# Method: (§1) SGLT1 and SGLT2 were cloned in form of cDNA from human small intestine (Genbank M24847), and from human kidney (Genbank M95549), respectively. Subsequently, each full cDNA was subcloned into pcDNA with each construct's integrity verified through follow-on sequencing. To generate CHO-K1 cells that stably express human SGLT1 or human SGLT2, CHO-K1 cells were transfected using DMRIE-C reagent (Life Technologies, Gaithersburg, Md.). Transfected cells were then selected in the presence of 500 μg/ml of the Geneticin (G418 Cellgro Catalog No. 30234-CI)
# (§2) Individual clones were then characterized using the following cell-based assay for sodium-dependent glucose transport:
# (§3) Inhibition of SGLT1 and SGLT2 activity was assessed in CHO K1 cells stably expressing either human SGLT1 or SGLT2, using the SGLT specific glucose analog methyl-glucopyranoside (Sigma Catalog No. M-9376). Cells were plated (45,000 cells/well) in white wall 96-well plates (COSTAR, Cat#3903) for 24 hours in growth medium, then a final concentration of 10 mM Na-Butyrate (ALDRICH Cat#30341-0) was added. The cells were incubated for 24 hours. On the day of the assay, cells were rinsed and treated with test compounds (at concentrations of 0.001 μM to 10 μM) in assay buffer (50 mM HEPES, 20 mM Tris base, 5 mM KCl, 1 mM MgCl2, 1 mM CaCl2 and 137 mM NaCl, pH 7.4) for 10 minutes. Cells were then incubated with ^14C-a-methyl-d-glucopyranoside (AMG, Amersham Catalog No. CFB 76), using 0.07 μCi per well in 500 μM AMG final concentration. The cells were incubated for 2 hours at 37° C. with 5% CO2 and washed two times with ice-cold Phosphate Buffer Solution (Cellgro Catalog No. 21030-CV). The cells were then solubilized by adding 60 μl of MICROSCINT™20 and the Na-dependent ^14C-AMG uptake was quantified by measuring radioactivity. Plates were counted in a TopCount (Packard, Meriden, Conn.)
# [2] = biological target: T2, human SGLT2 (Homo sapiens, UniProt P31639); assay: SGLT2 assay: Na-dependent 14C-AMG uptake in CHO-K1 cells stably expressing human SGLT2; type: cell-based; conditions: for pIC50: 500 μM AMG, 2 hours at 37° C.
# T2 construct: expressed in transfected cells; host or cells: CHO-K1
# T2 sequence (P31639 1-672): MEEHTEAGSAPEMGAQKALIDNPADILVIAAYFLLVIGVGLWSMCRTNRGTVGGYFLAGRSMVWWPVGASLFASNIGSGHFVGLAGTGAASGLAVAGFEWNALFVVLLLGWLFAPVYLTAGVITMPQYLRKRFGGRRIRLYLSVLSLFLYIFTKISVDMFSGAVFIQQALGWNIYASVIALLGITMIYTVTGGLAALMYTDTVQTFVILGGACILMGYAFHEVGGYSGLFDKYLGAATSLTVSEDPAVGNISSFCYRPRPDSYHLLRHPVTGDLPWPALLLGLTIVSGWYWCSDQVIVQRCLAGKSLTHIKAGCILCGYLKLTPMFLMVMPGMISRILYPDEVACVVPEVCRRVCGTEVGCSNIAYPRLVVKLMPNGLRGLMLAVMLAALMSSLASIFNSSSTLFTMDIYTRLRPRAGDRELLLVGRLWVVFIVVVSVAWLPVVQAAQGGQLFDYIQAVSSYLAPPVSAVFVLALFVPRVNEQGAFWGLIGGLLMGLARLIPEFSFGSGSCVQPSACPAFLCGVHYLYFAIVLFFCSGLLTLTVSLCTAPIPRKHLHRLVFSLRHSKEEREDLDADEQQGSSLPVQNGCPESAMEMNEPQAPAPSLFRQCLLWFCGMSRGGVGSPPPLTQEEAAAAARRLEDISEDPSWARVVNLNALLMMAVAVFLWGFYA
# Method: as §1, §2, §3
Compound,pIC50 [1],pIC50 [2],inhibition at 0.3 µM [1] [%],inhibition at 0.03 µM [2] [%]
"Cc1cc(Cc2ccc3c(c2)CC3)cc([C@@H]2O[C@H](CO)[C@@H](O)[C@H](O)[C@H]2O)c1O [Compound 27, (2S,3R,4R,5S,6R)-2-(5-((1,2-dihydrocyclobutabenzen-4-yl)methyl)-2-hydroxy-3-methylphenyl)-6-(hydroxymethyl)-tetrahydro-2H-pyran-3,4,5-triol]",7.54,9.00,–,–
"Cc1c(Cc2ccc3c(c2)CC3)ccc(O)c1[C@@H]1O[C@H](CO)[C@@H](O)[C@H](O)[C@H]1O [Compound 28, (2S,3R,4R,5S,6R)-2-(3-((1,2-dihydrocyclobutabenzen-4-yl)methyl)-6-hydroxy-2-methylphenyl)-6-(hydroxymethyl)-tetrahydro-2H-pyran-3,4,5-triol]",–,–,50,40
"Cc1cc(F)c([C@@H]2O[C@H](CO)[C@@H](O)[C@H](O)[C@H]2O)cc1Cc1ccc2c(c1)CC2 [Compound 29, (2S,3R,4R,5S,6R)-2-(5-[bicyclo[4.2.0]octa-1,3,5-trien-3-ylmethyl]-2-fluoro-4-methylphenyl)-6-(hydroxymethyl)oxane-3,4,5-triol]",7.04,8.52,–,–
"OC[C@H]1O[C@@H](c2cc(Cc3ccc4c(c3)CC4)c(Cl)cc2F)[C@H](O)[C@@H](O)[C@@H]1O [Compound 30, (2S,3R,4R,5S,6R)-2-(4-chloro-5-((1,2-dihydrocyclobutabenzen-4-yl)methyl)-2-fluorophenyl)-6-(hydroxymethyl)-tetrahydro-2H-pyran-3,4,5-triol]",6.69,8.52,–,–
"COc1cc(F)c([C@@H]2O[C@H](CO)[C@@H](O)[C@H](O)[C@H]2O)cc1Cc1ccc2c(c1)CC2 [Compound 31, (2S,3R,4R,5S,6R)-2-(5-((1,2-dihydrocyclobutabenzen-4-yl)methyl)-2-fluoro-4-methoxyphenyl)-6-(hydroxymethyl)-tetrahydro-2H-pyran-3,4,5-triol]",7.08,8.00,–,–
"CCc1cc(F)c([C@@H]2O[C@H](CO)[C@@H](O)[C@H](O)[C@H]2O)cc1Cc1ccc2c(c1)CC2 [Compound 32, (2S,3R,4R,5S,6R)-2-(5-((1,2-dihydrocyclobutabenzen-4-yl)methyl)-4-ethyl-2-fluorophenyl)-6-(hydroxymethyl)-tetrahydro-2H-pyran-3,4,5-triol]",8.00,8.52,–,–
"OC[C@H]1O[C@@H](c2cc(Cc3ccc4c(c3)CC4)c(Cl)cc2OC(F)F)[C@H](O)[C@@H](O)[C@@H]1O [Compound 37, (2S,3R,4R,5S,6R)-2-(4-chloro-2-(difluoromethoxy)-5-((1,2-dihydrocyclobutabenzen-4-yl)methyl)phenyl)-6-(hydroxymethyl)-tetrahydro-2H-pyran-3,4,5-triol]",–,–,20,84
"Cc1cc(OCF)c([C@@H]2O[C@H](CO)[C@@H](O)[C@H](O)[C@H]2O)cc1Cc1ccc2c(c1)CC2 [Compound 39, (2S,3R,4R,5S,6R)-2-(5-[bicyclo[4.2.0]octa-1(6),2,4-trien-3-ylmethyl]-2-(fluoromethoxy)-4-methylphenyl)-6-(hydroxymethyl)oxane-3,4,8-triol]",7.57,7.89,–,–
"OC[C@H]1O[C@@H](c2cc(Cc3ccc4c(c3)CC4)c(Cl)cc2OCF)[C@H](O)[C@@H](O)[C@@H]1O [Compound 40, (2S,3R,4R,5S,6R)-2-(4-chloro-5-((1,2-dihydrocyclobutabenzen-4-yl)methyl)-2-(fluoromethoxy)phenyl)-6-(hydroxymethyl)-tetrahydro-2H-pyran-3,4,5-triol]",6.83,9.00,–,–
"COc1cc(OCF)c([C@@H]2O[C@H](CO)[C@@H](O)[C@H](O)[C@H]2O)cc1Cc1ccc2c(c1)CC2 [Compound 41, (2S,3R,4R,5S,6R)-2-(5-((1,2-dihydrocyclobutabenzen-4-yl)methyl)-2-(fluoromethoxy)-4-methoxyphenyl)-6-(hydroxymethyl)-tetrahydro-2H-pyran-3,4,5-triol]",6.97,7.74,–,–
"CCc1cc(OCF)c([C@@H]2O[C@H](CO)[C@@H](O)[C@H](O)[C@H]2O)cc1Cc1ccc2c(c1)CC2 [Compound 42, (2S,3R,4R,5S,6R)-2-(5-((1,2-dihydrocyclobutabenzen-4-yl)methyl)-4-ethyl-2-(fluoromethoxy)phenyl)-6-(hydroxymethyl)-tetrahydro-2H-pyran-3,4,5-triol]",7.47,8.70,–,–
[2H]C([2H])(c1ccc2c(c1)CC2)c1cc([C@@H]2O[C@H](CO)[C@@H](O)[C@H](O)[C@H]2O)ccc1C [Compound 51],7.46,9.00,–,–

# Second part, the compound after the results:
pIC50 [1],pIC50 [2],inhibition at 0.3 µM [1] [%],inhibition at 0.03 µM [2] [%],Compound
–,–,23,57,"Cc1cc(OC(F)(F)F)c([C@@H]2O[C@H](CO)[C@@H](O)[C@H](O)[C@H]2O)cc1Cc1ccc2c(c1)CC2 [Compound 33, (2S,3R,4R,5S,6R)-2-(5-((1,2-dihydrocyclobutabenzen-4-yl)methyl)-4-methyl-2-(trifluoromethoxy)phenyl)-6-(hydroxymethyl)-tetrahydro-2H-pyran-3,4,5-triol]"
–,–,24,72,"COc1cc(OC(F)(F)F)c([C@@H]2O[C@H](CO)[C@@H](O)[C@H](O)[C@H]2O)cc1Cc1ccc2c(c1)CC2 [Compound 34, (2S,3R,4R,5S,6R)-2-(5-((1,2-dihydrocyclobutabenzen-4-yl)methyl)-4-methoxy-2-(trifluoromethoxy)phenyl)-6-(hydroxymethyl)-tetrahydro-2H-pyran-3,4,5-triol]"
–,–,29,45,"CCc1cc(OC(F)(F)F)c([C@@H]2O[C@H](CO)[C@@H](O)[C@H](O)[C@H]2O)cc1Cc1ccc2c(c1)CC2 [Compound 35, (2S,3R,4R,5S,6R)-2-(5-((1,2-dihydrocyclobutabenzen-4-yl)methyl)-4-ethyl-2-(trifluoromethoxy)phenyl)-6-(hydroxymethyl)-tetrahydro-2H-pyran-3,4,5-triol]"
–,–,26,84,"Cc1cc(OC(F)F)c([C@@H]2O[C@H](CO)[C@@H](O)[C@H](O)[C@H]2O)cc1Cc1ccc2c(c1)CC2 [Compound 36, 2S,3R,4R,5S,6R)-2-(5-([bicyclo[4.2.0]octa-1(6),2,4-trien-3-ylmethyl]-2-(difluoromethoxy)-4-methylphenyl)-6-(hydroxymethyl)oxane-3,4,5-triol]"
–,–,20,78,"COc1cc(OC(F)F)c([C@@H]2O[C@H](CO)[C@@H](O)[C@H](O)[C@H]2O)cc1Cc1ccc2c(c1)CC2 [Compound 38, (2S,3R,4R,5S,6R)-2-(2-(difluoromethoxy)-5-((1,2-dihydrocyclobutabenzen-4-yl)methyl)-4-methoxyphenyl)-6-(hydroxymethyl)-tetrahydro-2H-pyran-3,4,5-triol]"
